These results are taken from patent publication US6274704A, “Peptides derived from the heparin binding domain of fibronectin” (Hisamitsu Pharmaceutical Co., Inc., priority 1996, dated 2001).

Ends that are not written are not given here.

The subject of one assay is A375 melanoma cell. Description: Cell adhesion inhibition activity of synthetic peptides (cell suspension includes the peptide). Type of assay: cell-based. As to conditions: Concentration 200 μg/ml; adhesion to fibronectin-coated plate, 60 minutes, 0.2% DMSO. On the procedure: The above synthetic peptides were used in this experiment after being dissolved in dimethyl sulfoxide (DMSO: Wako Jyunyaku Co.). To adjust a condition of each experiment to the same, DMSO was added into phosphate buffers containing urea-non-treated Hep 2 fragment, urea-treated Hep 2 fragment, GRGDSP peptide and phosphate buffer itself as a control, respectively. The concentration of DMSO of each experiment was adjusted to 0.2% of final concentration. Inhibition activity against cell adhesion was evaluated according to the method of Fukai et al. (Biochem. Biophys. Res. Commun., 220, 394-398, 1996). In other words, the inhibition activity against cell adhesion of A375 melanoma cell to a plate was measured under the condition with or without the above various synthetic peptides. A375 melanoma cell (American Type Culture Collection: ATCC) was suspended in Dulbecco's modified eagle medium (DMEM: Gibuco Co.) including 0.1% Ovalbumin (Wako Jyunyaku Co.) to be a concentration of 2×10^5 cells/ml. Before preparing cell suspension, a plate was coated with fibronectin according to the method of Miekka et al. Specifically, phosphate buffer containing 10 μg/ml of fibronectin (FN) was prepared and 100 μl of the resultant phosphate buffer containing fibronectin was added into each well of a 96-well plate and then the plate was incubated at 37° C., 5% CO2 concentration for 60 minutes before being washed with phosphate buffer three times. Fibronectin (FN) was purified according to the method of Miekka et al. (Thromb. Res., 27, 1-14, 1982). One hundred (100) μl of the above cell suspension was added into each well of the plate and the plate was incubated at 37° C., 5% CO2 concentration for 60 minutes (Control was without any synthetic peptide). After fixing cells in each well with 5% of formaldehyde (Wako Jyunyaku Co.), non adhesion cells were removed and calls in five areas selected at random in each well were counted by the use of a microscope.
The addition of Hep 2 fragment and each peptide was carried out by the step in which a solution containing Hep 2 fragment or each peptides dissolved with high concentration was added to the cell suspension to obtain the final concentration of Hep 2 fragment or each peptides shown in Table 1.
On to “III 13-3: peptide consisting of SEQ ID NO:6, part of Hep 2 fragment (SYTITGLQPGTDYKIYLYTLNDNAR)”, for which the “Cell adhesion inhibition activity” value was determined as 9%.

As to “III 13-2: peptide consisting of SEQ ID NO:5, part of Hep 2 fragment (TGFQVDAVPANGQTPIQRTIKPDVR)”, the “Cell adhesion inhibition activity” value stood at 11%.

“III 12-3: peptide consisting of SEQ ID NO:3, part of Hep 2 fragment (VSVYALKDTLTSRPAQGVVTTLE)”: the “Cell adhesion inhibition activity” value came out at 7%.

Regarding “III 13-1: peptide consisting of SEQ ID NO:4, part of Hep 2 fragment (NVSPPRRARVTDATETTITISWRTKTETI)”, the “Cell adhesion inhibition activity” value is listed as 4%.

Turning to “III 12-2: peptide consisting of SEQ ID NO:2, part of Hep 2 fragment (INLAPDSSSVVVSGLMVATKWE)”, the “Cell adhesion inhibition activity” value worked out at 13%.

Consider “III 12-1: peptide consisting of SEQ ID NO:1, part of Hep 2 fragment (AIPAPTDLKFTQVTPTSLSAQWTPPNVQLTG)”, for which the “Cell adhesion inhibition activity” value was 11%.

“III 14-1: peptide consisting of SEQ ID NO:7, part of Hep 2 fragment (NLRFLATTPNSLLVSWQPPRARITGYIIK)”: the “Cell adhesion inhibition activity” value amounted to 11%.

The next assay deals with A375 melanoma cell. Description: Cell adhesion inhibition activity (plate coated with fibronectin solution containing KLH modified synthetic peptide). Type of assay: cell-based. The settings on record: Experiment 2, KLH modified peptides coated with fibronectin, FIG. 3. On the procedure: The above various KLH modified synthetic peptides were added to a solution containing fibronectin to obtain a given concentration, then the procedure of Experiment 1 were repeated with the exception that the resultant solution were added into 96-well plate to coat it. The experiment without any synthetic peptide is a control (the concentration of a peptide was 0 μg/m 1).
Consider “III 14-2B: peptide of sequence ID NO:11, a part of peptide III 14-2; tested KLH modified (LEPGTEYTIYVIALKNNQK; also: KLH conjugated)”, for which the “cell adhesion inhibition activity (in words)” value is “the same strong cell adhesion inhibition activity as that of the peptide III 14-2”.

Consider “III 14-2A: peptide of sequence ID NO:10, a part of peptide III 14-2; tested KLH modified (RPRPGVTEATITG; also: KLH conjugated)”, for which the “cell adhesion inhibition activity (in words)” value is on record as “very little cell adhesion inhibition activity”.

Turning to “III 14-2C: peptide of sequence ID NO:12, a part of peptide III 14-2; tested KLH modified (YTIYVIALKNNQK; also: KLH conjugated)”, the “cell adhesion inhibition activity (in words)” value is “the same strong cell adhesion inhibition activity as that of the peptide III 14-2”.

The test system of another assay is melanoma cell.
Assay: not given
As to conditions: in vivo; cited from earlier work.
As to GRGDS, the “inhibition of experimental metastasis of melanoma cell to lung” value is given as “inhibits experimental metastasis of melanoma cell to lung”.
